This note sets out measurements from paper PMC5068545, “Glycan Specificity of P[19] Rotavirus and Comparison with Those of Related P Genotypes” (Journal of Virology, 2016).

Assay [1] deals with T1, P[19] VP8* (Human rotavirus A, UniProt A7YCM0).
T1 construct: gene VP4; VP8* domain (aa 46-231) of spike polyprotein VP4; E. coli BL21 GST fusion; GST cut with thrombin for NMR, kept in ELISA and glycan array
Nature of the assay: ELISA-based oligosaccharide binding. Particulars: GST-VP8*; labelled compound (biotin conjugate, multivalent); weak signal. The text has this:
ELISA-based oligosaccharide binding on P[19] […] RVs recognized LNFPI and LNT | Low binding signals were detected for all four P[II] RVs

For assay [2], the target named is T2, P[8] VP8* (Human rotavirus A, UniProt A0A509GLV6).
T2 construct: VP8* domain of spike polyprotein VP4; GST fusion from E. coli BL21
Kind of assay: ELISA-based oligosaccharide binding. Particulars: GST-VP8*; labelled compound (biotin conjugate, multivalent); weak signal. An excerpt: ELISA-based oligosaccharide binding on P[8] […] RVs

Assay [3] deals with T3, P[4] VP8* (Human rotavirus (SEROTYPE 2 / STRAIN DS1), UniProt P11196).
T3 construct: VP8* domain of spike polyprotein VP4; GST fusion from E. coli BL21; DS1 is only the modelling template
Nature of the assay: ELISA-based oligosaccharide binding. Particulars: GST-VP8*; labelled compound (biotin conjugate, multivalent); weak signal. The text has this:
ELISA-based oligosaccharide binding on P[4] […] RVs
On the technique in general: ELISA stands for enzyme-linked immunosorbent assay.

The target of assay [4] is T1, P[19] VP8*. Kind of assay: 1H-15N HSQC NMR titration. Format: binding. Particulars: 20°C, pH 8.0, 10 mM Tris-HCl, 100 mM NaCl; 0.25 mM 15N-labelled VP8*, GST removed. The text has this: 1H-15N HSQC NMR titration on P[19]

Each structure is given as a SMILES string.

Take `CC(=O)N[C@H]1C(O)O[C@H](CO)[C@@H](O)[C@@H]1O[C@@H]1O[C@H](CO)[C@H](O)[C@H](O)[C@H]1O` (stereo partly shown) [lacto-N-biose, Galβ1-3GlcNAc]: the ELISA-based oligosaccharide binding result in assay [1], in assay [2] and in assay [3] was “Low binding signals were detected for all four P[II] RVs” each time.

Turning to `CC(=O)N[C@H]1[C@H](O[C@H]2[C@@H](O)[C@@H](CO)O[C@@H](O[C@H]3[C@H](O)[C@@H](O)C(O)O[C@@H]3CO)[C@@H]2O)O[C@H](CO)[C@@H](O)[C@@H]1O[C@@H]1O[C@H](CO)[C@H](O)[C@H](O)[C@H]1O[C@@H]1O[C@@H](C)[C@@H](O)[C@@H](O)[C@@H]1O` (stereo partly shown) [LNFPI, Fucα1-2Galβ1-3GlcNAcβ1-3Galβ1-4Glc], binding in assay [4] was put at a Kd of 2.6 mM.

What is called Kd is the constant that tells how readily two partners part at equilibrium. High values mean weaker binding, low ones tighter binding.
